Source: paper PMC10742472, “Synthesis and Characterisation of Platinum(II) Diaminocyclohexane Complexes with Pyridine Derivatives as Anticancer Agents” (International Journal of Molecular Sciences, 2023)

What was measured:
[1] = system: Calf-thymus DNA (ctDNA); experiment: Fluorescent intercalator displacement (FID) ctDNA binding assay with ethidium bromide; set-up: Ka (binding coefficient) / KF (binding constant for fluorescence) / Kq (bimolecular quenching constant) / KSV (Stern–Volmer quenching constant): unit not given here; conditions: 75 µM ethidium bromide, 150 µM ctDNA, pH 7.0
Procedure: To achieve this, the fluorescent signal of a DNA intercalator, in this case, ethidium bromide (EtBr), is measured as increasing concentrations of PC are added. As the PC displaces the EtBr, the fluorescence of the mixture is diminished, and the DNA binding capacity of the complex can be calculated from the fluorescence measurement. Calf-thymus DNA (ctDNA) was used and saturated with EtBr. The change in fluorescence is monitored as the complex is titrated into this solution. Once the decrease in fluorescence plateaued, the titration was ended. […] The fluorescence was measured from 550-750 nm and excited at 480 nm. Importantly, the cuvette was inverted four times, and the solution was incubated for 3 min after the addition of […] to allow adequate time for the PCs to interact with the DNA before scanning. […] A plot of F0/F against [PC] using experimental values allowed the determination of Kq and KSV from the slope as per Equation (5). (5) […] where n is the number of ethidium ligands that are displaced per PC. It is important to note that this expression is a simplification of the true binding interaction, as it ignores the effect of EtBr on the binding equilibrium. […] A plot of Log10[(F0 - F)/F)] against Log10[PC] was used to determine KF and n from the intercept and slope, respectively.

[2] = system: HT29 (Colon); experiment: MTT cytotoxicity assay, HT29; assay type: cell-based; conditions: 72 h exposure
[3] = system: U87 (Glioblastoma); experiment: MTT cytotoxicity assay, U87; assay type: cell-based; conditions: 72 h exposure
[4] = system: MCF-7 (Breast); experiment: MTT cytotoxicity assay, MCF-7; assay type: cell-based; conditions: 72 h exposure
[5] = system: H460 (Lung); experiment: MTT cytotoxicity assay, H460; assay type: cell-based; conditions: 72 h exposure
[6] = system: A431 (Skin); experiment: MTT cytotoxicity assay, A431; assay type: cell-based; conditions: 72 h exposure
[7] = system: Du145 (Prostate); experiment: MTT cytotoxicity assay, Du145; assay type: cell-based; conditions: 72 h exposure
[8] = system: BE2-C (Neuroblastoma); experiment: MTT cytotoxicity assay, BE2-C; assay type: cell-based; conditions: 72 h exposure
[9] = system: SJ-G2 (Glioblastoma); experiment: MTT cytotoxicity assay, SJ-G2; assay type: cell-based; conditions: 72 h exposure
[10] = system: MIA (Pancreas); experiment: MTT cytotoxicity assay, MIA; assay type: cell-based; conditions: 72 h exposure
[11] = system: MCF10A (Breast, Normal); experiment: MTT cytotoxicity assay, MCF10A non-cancer breast cells; assay type: cell-based; conditions: 72 h exposure
[12] = assay type: physicochemical
Procedure: Lipophilicity was calculated using RP-HPLC. A stock solution of each PC was injected at different isocratic ratios ranging from 70–90% solvent B (organic) at a flow rate of 1 mL·min^−1 [32, 33, 34]. The complexes have low solubility in water, often requiring DMSO to make concentrated solutions. Yet the LogK’ calculated using these experimental data indicated high lipophilicity, which is typical for 2+ charged complexes. […] When heat was applied, they would not precipitate out of the solution after cooling. This confirmed that a lack of persistence was the cause of the “observed” low solubility in H2O. […] Their increased lipophilicity may indicate they have the potential to be administered orally, a characteristic usually associated with Pt(IV) complexes. Other factors, such as stability and cellular absorption, would need to be considered before the potential of these Pt(II) anticancer agents could be evaluated.
Lipophilicity was evaluated using RP-HPLC, whereby LogKw is calculated by injecting a stock solution of the PC at different isocratic ratios ranging from 70–90% solvent B (organic) at a flow rate of 1 mL·min^−1. An Agilent Technologies 1260 Infinity machine equipped with a Phenomenex Onyx™ Monolithic C18 reverse phase column (100 × 4.6 mm, 130 Å) was used to determine purity. The mobile phase comprised 0.06% TFA in water (solvent A) and 0.06% TFA in 90:10 ACN:H2O mixture (solvent B). The PC peak was eluted outside the dead zero volume time to avoid inaccurate results. The dead zero volume time was determined using potassium iodide as an external dead volume marker, with further details in the Supplementary Materials. The subsequent peaks were recorded, and K was calculated using Equation (6). (6) K=tr−t0/t0 where K is the capacity factor, tr is the retention time of the analyte, and t0 is the dead time determined using a solution of KI in the same column. At least five different isocratic ratios were used to assess each PC, and each experiment was repeated three times. LogK’ was then calculated and plotted against the concentration of ACN in the mobile phase. […] (7) LogK^′=Sφ+LogKw where S is the slope, φ is the concentration of ACN in the mobile phase, and LogKw represents the capacity factor of the compound in 100% water (Figure S49).

Row | Compound | Binding Stoichiometry [1] | KF (binding constant for fluorescence) [1] | KSV (Stern–Volmer quenching constant) [1] | Ka (binding coefficient) [1] | Kq (bimolecular quenching constant) [1] | n (molar equivalents of PC at the point of intersection) [1] | ΔFsat (change in fluorescence at the point of binding) [1] | GI50 [2] | GI50 [3] | GI50 [4] | GI50 [5] | GI50 [6] | GI50 [7] | GI50 [8] | GI50 [9] | GI50 [10] | GI50 [11] | Lipophilicity [12]
1 | [Cl][Pt][Cl].c1ccc(-c2ncc[nH]2)nc1 [Complex 2, [Pt(ImPy)(Cl)2]] | 3.82 | 3.12 × 10^3 | 1.68 × 10^3 | 2.75 × 10^4 | 0.50 × 10^3 | 1.18 | 80.9 | 34 ± 2 µM | 30 ± 2 µM | 25 ± 2.3 µM | 4 ± 1 µM | 42 ± 3.5 µM | 36 ± 1.3 µM | 37 ± 4 µM | 14 ± 0.17 µM | 29 ± 2.3 µM | 13 ± 0.6 µM | –
2 | [Cl][Pt][Cl].c1ccc(-c2nc3ccccc3[nH]2)nc1 [Complex 3, [Pt(BImPy)(Cl)2]] | 3.40 | 3.72 × 10^3 | 2.18 × 10^3 | 5.10 × 10^4 | 0.51 × 10^3 | 1.24 | 110.3 | > 50 µM | 37 ± 2 µM | 12 ± 1.2 µM | 15 ± 3.1 µM | 47 ± 2.5 µM | > 50 µM | > 50 µM | 42 ± 1.5 µM | > 50 µM | 45 ± 3.2 µM | –
3 | [Cl][Pt][Cl].c1ccc(C2CCCN2)nc1 (centres unmarked) [Complex 1, [Pt(PyPy)(Cl)2]] | 3.61 | 2.69 × 10^3 | 1.65 × 10^3 | 5.05 × 10^4 | 0.40 × 10^3 | 0.91 | 99.1 | 53 ± 1 µM | 36 ± 1.5 µM | 30 ± 1 µM | 16 ± 1.7 µM | > 50 µM | > 50 µM | > 50 µM | > 50 µM | > 50 µM | > 50 µM | –
4 | [Pt(2-pyrrolidin-2-yl pyridine)(1R,2R-(+)-diaminocyclohexane)]^2+ [Complex 4b] | 1.17 | 5.77 × 10^3 | 3.85 × 10^3 | 1.40 × 10^4 | 0.74 × 10^3 | 1.68 | 121.0 | > 50 µM | 43 ± 0.67 µM | 12.5 ± 0.76 µM | 31 ± 0.88 µM | 30 ± 4.7 µM | > 50 µM | 31 ± 1.2 µM | > 50 µM | 43 ± 1 µM | 45 µM | –
5 | N[C@H]1CCCC[C@@H]1N.[Pt+2].c1ccc(C2CCCN2)nc1 [Complex 4a, [Pt(2-pyrrolidin-2-yl pyridine)(1S,2S-(+)-diaminocyclohexane)]^2+] | 1.48 | 6.20 × 10^3 | 4.16 × 10^3 | 1.06 × 10^4 | 0.83 × 10^3 | 1.83 | 135.0 | > 50 µM | 48 ± 2.6 µM | 3.2 ± 0.6 µM | 4.4 ± 0.7 µM | 9 ± 2.3 µM | 47 ± 1.7 µM | 37.5 ± 0.5 µM | 17 ± 1.9 µM | 12 ± 1 µM | 42 ± 3 µM | 2.68 ± 0.02
